Results: US9630977B2, “Cephalosporin derivatives and pharmaceutical compositions thereof” (Legochem Biosciences, Inc., priority 2011, dated 2017)
Converted amounts (≈) assume the structure as drawn.

Key:
Experiment in all cases: In vitro antibacterial activity test (broth microdilution)
Assay type in all cases: cell-based
K. pneumoniae β9 = settings: Klebsiella pneumoniae
Method in brief: (§1)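 Compounds were dissolved in DMSO at 10,240 ug/mL stock, diluted two-fold in DMSO and then twenty-fold in sterile water. Final test concentrations spanned 0.0626 to 128 ug/mL with 2.5% (V/V) DMSO, and MIC90 was read by CLSI broth microdilution.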

M. catarrhalis 2524 = settings: Moraxella catarrhalis, 2524
Method in brief: as §1

A. baumannii 46 = settings: Acinetobacter baumannii, 46, A. baumannii 46
Method in brief: as §1

P. aeruginosa 40 = settings: Pseudomonas aeruginosa, 40
Method in brief: as §1

K. pneumoniae β11 = settings: Klebsiella pneumoniae
Method in brief: as §1

P. aeruginosa 37 = settings: Pseudomonas aeruginosa, 37, P. aeruginosa 37
Method in brief: as §1

E. cloacae β19 = settings: Enterobacter cloacae
Method in brief: as §1

E. coli β4 = settings: Escherichia coli
Method in brief: as §1

K. pneumoniae β13 = settings: Klebsiella pneumoniae
Method in brief: as §1

K. pneumoniae β14 = settings: Klebsiella pneumoniae
Method in brief: as §1

A. baumannii 49 = settings: Acinetobacter baumannii, 49, A. baumannii 49
Method in brief: as §1

[1] = system: A. calcoaceticus ATCC15473; settings: Acinetobacter calcoaceticus, ATCC15473, A. calcoaceticus ATCC15473
Method in brief: as §1

P. aeruginosa 6065Y = settings: Pseudomonas aeruginosa, 6065Y
Method in brief: as §1

K. pneumoniae 2011E = settings: Klebsiella pneumoniae, 2011E
Method in brief: as §1

A. baumannii 52 = settings: Acinetobacter baumannii, 52
Method in brief: as §1

K. pneumoniae β10 = settings: Klebsiella pneumoniae
Method in brief: as §1

P. aeruginosa 43 = settings: Pseudomonas aeruginosa, 43
Method in brief: as §1

E. coli AG100 = settings: Escherichia coli, AG100
Method in brief: as §1

P. aeruginosa 1912E = settings: Pseudomonas aeruginosa, 1912E
Method in brief: as §1

SMILES | MIC90 (K. pneumoniae β9) [µg/mL] | MIC90 (M. catarrhalis 2524) [µg/mL] | MIC90 (A. baumannii 46) [µg/mL] | MIC90 (P. aeruginosa 40) [µg/mL] | MIC90 (K. pneumoniae β11) [µg/mL] | MIC90 (P. aeruginosa 37) [µg/mL] | MIC90 (E. cloacae β19) [µg/mL] | MIC90 (E. coli β4) [µg/mL] | MIC90 (K. pneumoniae β13) [µg/mL] | MIC90 (K. pneumoniae β14) [µg/mL] | MIC90 (A. baumannii 49) [µg/mL] | MIC90 [1] [µg/mL] | MIC90 (P. aeruginosa 6065Y) [µg/mL] | MIC90 (K. pneumoniae 2011E) [µg/mL] | MIC90 (A. baumannii 52) [µg/mL] | MIC90 (K. pneumoniae β10) [µg/mL] | MIC90 (P. aeruginosa 43) [µg/mL] | MIC90 (E. coli AG100) [µg/mL] | MIC90 (P. aeruginosa 1912E) [µg/mL]
CC(C)(O/N=C(\C(=O)N[C@@H]1C(=O)N2C(C(=O)[O-])=C(/C=C/C[n+]3cnc(N)c(NC(=O)CCN)c3)CSC12)c1csc(N)n1)C(=O)O (some centres unmarked) [Compound 60] | 1 (≈ 1.48 µM) | < 0.0625 | 8 (≈ 11.9 µM) | 8 (≈ 11.9 µM) | 64 (≈ 94.9 µM) | 32 (≈ 47.4 µM) | 0.5 (≈ 0.741 µM) | 0.25 (≈ 0.371 µM) | 0.5 (≈ 0.741 µM) | 0.5 (≈ 0.741 µM) | > 128 | 1 (≈ 1.48 µM) | 16 (≈ 23.7 µM) | 0.25 (≈ 0.371 µM) | 128 (≈ 190 µM) | 0.5 (≈ 0.741 µM) | 64 (≈ 94.9 µM) | 0.125 (≈ 0.185 µM) | 2 (≈ 2.96 µM)
CC(C)(O/N=C(\C(=O)N[C@@H]1C(=O)N2C(C(=O)[O-])=C(/C=C/C[n+]3cnc(N)c(NC(=O)CCN)c3)CSC12)c1nsc(N)n1)C(=O)O (some centres unmarked) [Compound 61] | 16 (≈ 23.7 µM) | < 0.0625 | 128 (≈ 189 µM) | 2 (≈ 2.96 µM) | > 128 | 32 (≈ 47.4 µM) | 16 (≈ 23.7 µM) | 0.125 (≈ 0.185 µM) | 2 (≈ 2.96 µM) | 4 (≈ 5.92 µM) | 128 (≈ 189 µM) | 1 (≈ 1.48 µM) | 32 (≈ 47.4 µM) | 0.25 (≈ 0.37 µM) | 128 (≈ 189 µM) | 1 (≈ 1.48 µM) | > 128 | 0.125 (≈ 0.185 µM) | 2 (≈ 2.96 µM)
CC(C)(O/N=C(\C(=O)N[C@@H]1C(=O)N2C(C(=O)[O-])=C(/C=C/C[n+]3cnc(N)c(NC(=O)CCN)c3)CSC12)c1nc(N)sc1Cl)C(=O)O (some centres unmarked) [Compound 62] | 1 (≈ 1.41 µM) | < 0.0625 | 16 (≈ 22.6 µM) | 8 (≈ 11.3 µM) | 1 (≈ 1.41 µM) | 8 (≈ 11.3 µM) | 4 (≈ 5.64 µM) | 0.5 (≈ 0.705 µM) | 1 (≈ 1.41 µM) | 1 (≈ 1.41 µM) | 32 (≈ 45.1 µM) | 1 (≈ 1.41 µM) | 16 (≈ 22.6 µM) | 1 (≈ 1.41 µM) | 32 (≈ 45.1 µM) | 0.5 (≈ 0.705 µM) | 64 (≈ 90.2 µM) | 0.5 (≈ 0.705 µM) | 4 (≈ 5.64 µM)
CC(C)(O/N=C(\C(=O)N[C@@H]1C(=O)N2C(C(=O)[O-])=C(/C=C/C[n+]3cnc(N)c(NC(=O)CCCN)c3)CSC12)c1csc(N)n1)C(=O)O (some centres unmarked) [Compound 63] | 1 (≈ 1.45 µM) | < 0.0625 | 8 (≈ 11.6 µM) | 4 (≈ 5.81 µM) | 32 (≈ 46.5 µM) | 32 (≈ 46.5 µM) | 16 (≈ 23.2 µM) | 0.25 (≈ 0.363 µM) | 1 (≈ 1.45 µM) | 1 (≈ 1.45 µM) | 128 (≈ 186 µM) | 1 (≈ 1.45 µM) | 16 (≈ 23.2 µM) | 0.25 (≈ 0.363 µM) | 128 (≈ 186 µM) | 0.5 (≈ 0.726 µM) | 128 (≈ 186 µM) | 0.125 (≈ 0.181 µM) | 2 (≈ 2.9 µM)
CC(C)(O/N=C(\C(=O)N[C@@H]1C(=O)N2C(C(=O)[O-])=C(/C=C/C[n+]3cnc(N)c(NC(=O)CCCN)c3)CSC12)c1nc(N)sc1Cl)C(=O)O (some centres unmarked) [Compound 64] | 2 (≈ 2.77 µM) | < 0.0625 | 16 (≈ 22.1 µM) | 8 (≈ 11.1 µM) | 8 (≈ 11.1 µM) | 16 (≈ 22.1 µM) | 8 (≈ 11.1 µM) | 1 (≈ 1.38 µM) | 2 (≈ 2.77 µM) | 2 (≈ 2.77 µM) | 32 (≈ 44.2 µM) | 1 (≈ 1.38 µM) | 32 (≈ 44.2 µM) | 2 (≈ 2.77 µM) | 32 (≈ 44.2 µM) | 1 (≈ 1.38 µM) | 128 (≈ 177 µM) | 0.5 (≈ 0.691 µM) | 4 (≈ 5.53 µM)
CC(C)(O/N=C(\C(=O)N[C@@H]1C(=O)N2C(C(=O)[O-])=C(/C=C/C[n+]3cnc(N)c(NC(=O)CCCN)c3)CSC12)c1nsc(N)n1)C(=O)O (some centres unmarked) [Compound 65] | 16 (≈ 23.2 µM) | < 0.0625 | 64 (≈ 92.8 µM) | 4 (≈ 5.8 µM) | > 128 | 32 (≈ 46.4 µM) | 32 (≈ 46.4 µM) | 0.125 (≈ 0.181 µM) | 2 (≈ 2.9 µM) | 2 (≈ 2.9 µM) | 64 (≈ 92.8 µM) | 0.5 (≈ 0.725 µM) | 32 (≈ 46.4 µM) | 0.25 (≈ 0.362 µM) | 64 (≈ 92.8 µM) | 1 (≈ 1.45 µM) | > 128 | < 0.0625 | 2 (≈ 2.9 µM)
CC(C)(O/N=C(\C(=O)N[C@@H]1C(=O)N2C(C(=O)[O-])=C(/C=C/C[n+]3cnc(N)c(NC(=O)CCN)c3N)CSC12)c1csc(N)n1)C(=O)O (some centres unmarked) [Compound 66] | 0.5 (≈ 0.725 µM) | < 0.0625 | 16 (≈ 23.2 µM) | 8 (≈ 11.6 µM) | 16 (≈ 23.2 µM) | 16 (≈ 23.2 µM) | 0.25 (≈ 0.362 µM) | 0.25 (≈ 0.362 µM) | 0.5 (≈ 0.725 µM) | 1 (≈ 1.45 µM) | > 128 | 2 (≈ 2.9 µM) | 16 (≈ 23.2 µM) | 0.5 (≈ 0.725 µM) | > 128 | 0.5 (≈ 0.725 µM) | > 128 | 0.25 (≈ 0.362 µM) | 4 (≈ 5.8 µM)
CC(C)(O/N=C(\C(=O)N[C@@H]1C(=O)N2C(C(=O)[O-])=C(/C=C/C[n+]3cnc(N)c(NC(=O)CCCN)c3N)CSC12)c1nc(N)sc1Cl)C(=O)O (some centres unmarked) [Compound 67] | 8 (≈ 10.8 µM) | < 0.0625 | 64 (≈ 86.7 µM) | 16 (≈ 21.7 µM) | 8 (≈ 10.8 µM) | 16 (≈ 21.7 µM) | 32 (≈ 43.3 µM) | 2 (≈ 2.71 µM) | 2 (≈ 2.71 µM) | 4 (≈ 5.42 µM) | 64 (≈ 86.7 µM) | 4 (≈ 5.42 µM) | 32 (≈ 43.3 µM) | 2 (≈ 2.71 µM) | 64 (≈ 86.7 µM) | 4 (≈ 5.42 µM) | > 128 | 0.5 (≈ 0.677 µM) | 4 (≈ 5.42 µM)
